Experimental data as given in ChEMBL document CHEMBL1201862, “PubChem BioAssay data set” (2004).
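Five compound concentrations were applied to cells in 96-well plates for 48 hours; endpoints were derived by simple linear interpolation of the resulting dose-response curve. The concentration for 50% growth inhibition is given as GI50.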 Calls of active or inactive are those of the source. Cut-off read from the data, not from the text of the source: active = GI50 up to about 1.1 µM and inactive = higher.

Tests used:
Experiment in all cases: NCI tumour cell line growth inhibition, 48 h
[1] = system: MDA-MB-231
[2] = system: KM12
[3] = system: UACC-62
[4] = system: MOLT-4
[5] = system: NCI-H522
[6] = system: 786-0
[7] = system: Hs-578T
[8] = system: HCT-15
[9] = system: OVCAR-5
[10] = system: SR
[11] = system: HOP-92
[12] = system: TK-10
[13] = system: Malme-3M
[14] = system: ACHN
[15] = system: T47D
[16] = system: A549
[17] = system: SNB-75
[18] = system: CCRF-CEM
[19] = system: SNB-19
[20] = system: OVCAR-3

SMILES	GI50 [1]	GI50 [2]	GI50 [3]	GI50 [4]	GI50 [5]	GI50 [6]	GI50 [7]	GI50 [8] [µM]	GI50 [9]	GI50 [10]	GI50 [11]	GI50 [12]	GI50 [13]	GI50 [14]	GI50 [15]	GI50 [16]	GI50 [17]	GI50 [18]	GI50 [19]	GI50 [20]
COc1ccc(OC)c2c1C(=O)C(Cl)=C(Cl)C2=O	2.74 µM (inactive)	17.3 µM (inactive)	2.58 µM (inactive)	2.51 µM (inactive)	2.04 µM (inactive)	3.41 µM (inactive)	2.65 µM (inactive)	3.3	15.7 µM (inactive)	1.16 µM (inactive)	2.51 µM (inactive)	3.09 µM (inactive)	2.25 µM (inactive)	2.99 µM (inactive)	3.17 µM (inactive)	22.3 µM (inactive)	14.2 µM (inactive)	14.6 µM (inactive)	> 46 µM (inactive)	2.39 µM (inactive)
N#Cc1nc(COCc2ccccc2)oc1N	> 100 µM (inactive)	58.6 µM (inactive)	> 100 µM (inactive)	> 100 µM (inactive)	2.97 µM (inactive)	> 100 µM (inactive)	> 100 µM (inactive)	51.1	> 100 µM (inactive)	> 100 µM (inactive)	> 100 µM (inactive)	> 100 µM (inactive)	28.7 µM (inactive)	> 100 µM (inactive)	> 100 µM (inactive)	> 100 µM (inactive)	> 100 µM (inactive)	17.9 µM (inactive)	> 100 µM (inactive)	> 100 µM (inactive)
O=C1c2cc([N+](=O)[O-])sc2C(=O)c2ccsc21	0.266 µM (active)	0.407 µM (active)	0.204 µM (active)	0.215 µM (active)	0.195 µM (active)	0.449 µM (active)	0.618 µM (active)	0.284	1.69 µM (inactive)	< 0.0129 µM (active)	0.201 µM (active)	0.774 µM (active)	0.164 µM (active)	0.281 µM (active)	0.478 µM (active)	1.83 µM (inactive)	1.4 µM (inactive)	0.075 µM (active)	1.89 µM (inactive)	0.0392 µM (active)
CCOC(=O)/C=C/[C@H](O[Si](CC)(CC)CC)C(C)(C)C	80.4 µM (inactive)	> 100 µM (inactive)	90.2 µM (inactive)	77.1 µM (inactive)	29.1 µM (inactive)	80.5 µM (inactive)	> 100 µM (inactive)	41.5	89.9 µM (inactive)	22.7 µM (inactive)	> 100 µM (inactive)	> 100 µM (inactive)	> 100 µM (inactive)	28.7 µM (inactive)	67.1 µM (inactive)	35 µM (inactive)	> 100 µM (inactive)	22.4 µM (inactive)	36.3 µM (inactive)	52.7 µM (inactive)
CCO/C=N/C1=C(C#N)C(c2ccc(Cl)cc2)c2c(-c3ccccc3)nn(-c3ccccc3)c2O1 (stereo not given)	21.6 µM (inactive)	5.09 µM (inactive)	12.2 µM (inactive)	6.93 µM (inactive)	3.77 µM (inactive)	10.2 µM (inactive)	6.12 µM (inactive)	5.43	23.7 µM (inactive)	5.5 µM (inactive)	5.42 µM (inactive)	7.19 µM (inactive)	12.3 µM (inactive)	8.51 µM (inactive)	> 61.9 µM (inactive)	5.73 µM (inactive)	6.81 µM (inactive)	5.73 µM (inactive)	12.7 µM (inactive)	3.72 µM (inactive)
CCCCCC(=O)OC[n+]1ccc(-c2c(COC(=O)NC(C)C)c(COC(=O)NC(C)C)c3n2CCC3)cc1	> 100 µM (inactive)	> 100 µM (inactive)	26.5 µM (inactive)	35.9 µM (inactive)	> 100 µM (inactive)	> 92 µM (inactive)	> 100 µM (inactive)	> 100	> 100 µM (inactive)	16.9 µM (inactive)	> 100 µM (inactive)	> 100 µM (inactive)	> 100 µM (inactive)	50.9 µM (inactive)	> 100 µM (inactive)	> 100 µM (inactive)	> 100 µM (inactive)	43.2 µM (inactive)	> 100 µM (inactive)	> 100 µM (inactive)
CC(C)(C)[C@H]1CCC2(OCCO2)[C@](O)(CCCO)C1	> 100 µM (inactive)	> 100 µM (inactive)	> 100 µM (inactive)	> 100 µM (inactive)	> 100 µM (inactive)	> 100 µM (inactive)	> 100 µM (inactive)	> 100	> 100 µM (inactive)	> 100 µM (inactive)	> 100 µM (inactive)	> 100 µM (inactive)	> 100 µM (inactive)	> 100 µM (inactive)	> 100 µM (inactive)	> 100 µM (inactive)	> 100 µM (inactive)	> 100 µM (inactive)	> 100 µM (inactive)	> 100 µM (inactive)
COCc1cc2c(s1)C(=O)C1=C(C2=O)C2(C=C(Br)C(=O)C(Br)=C2)CCN1	3.04 µM (inactive)	4.85 µM (inactive)	1.56 µM (inactive)	2.43 µM (inactive)	2.39 µM (inactive)	4.88 µM (inactive)	9.53 µM (inactive)	3.13	15.5 µM (inactive)	1.49 µM (inactive)	4.94 µM (inactive)	18.2 µM (inactive)	0.946 µM (active)	4.98 µM (inactive)	3.06 µM (inactive)	6.53 µM (inactive)	14.6 µM (inactive)	3.01 µM (inactive)	18.3 µM (inactive)	0.809 µM (active)
O=[N+]([O-])c1ccc(NN/N=N/c2ccc(-c3nc4ccccc4s3)cc2)c([N+](=O)[O-])c1	22.3 µM (inactive)	27.5 µM (inactive)	14 µM (inactive)	13.7 µM (inactive)	25 µM (inactive)	20.8 µM (inactive)	33.5 µM (inactive)	22.7	23.8 µM (inactive)	26.8 µM (inactive)	21 µM (inactive)	36.9 µM (inactive)	28.2 µM (inactive)	22.2 µM (inactive)	19.1 µM (inactive)	27.7 µM (inactive)	24.8 µM (inactive)	28.6 µM (inactive)	31.1 µM (inactive)	19.8 µM (inactive)
Clc1nc(Cl)c(Cl)c(Cl)n1	18 µM (inactive)	13.6 µM (inactive)	18.5 µM (inactive)	6.21 µM (inactive)	15.9 µM (inactive)	19.7 µM (inactive)	20.9 µM (inactive)	19.1	20.5 µM (inactive)	5.96 µM (inactive)	25.5 µM (inactive)	20.9 µM (inactive)	16 µM (inactive)	8.91 µM (inactive)	18.2 µM (inactive)	19.8 µM (inactive)	17.8 µM (inactive)	5.15 µM (inactive)	22.3 µM (inactive)	13.9 µM (inactive)
CCOC(=O)C12CC(C)=C(C)CC1CCCc1ccccc12 (stereo not given)	14.2 µM (inactive)	29.6 µM (inactive)	21.9 µM (inactive)	18 µM (inactive)	17.6 µM (inactive)	31.5 µM (inactive)	36.1 µM (inactive)	22.3	21.4 µM (inactive)	23.8 µM (inactive)	13.5 µM (inactive)	27 µM (inactive)	23 µM (inactive)	18.8 µM (inactive)	15 µM (inactive)	32.7 µM (inactive)	28.8 µM (inactive)	18.4 µM (inactive)	29.6 µM (inactive)	17.5 µM (inactive)
Nc1c(-c2cccc3ccccc23)c2ccc([N+](=O)[O-])cc2c(=O)n1-c1nc2ccccc2s1	5.37 µM (inactive)	3.84 µM (inactive)	5.6 µM (inactive)	3.03 µM (inactive)	2.22 µM (inactive)	5.64 µM (inactive)	2.98 µM (inactive)	6.38	14.3 µM (inactive)	12.5 µM (inactive)	3.23 µM (inactive)	4.42 µM (inactive)	3.58 µM (inactive)	3.16 µM (inactive)	3.37 µM (inactive)	3.32 µM (inactive)	0.875 µM (active)	1.33 µM (inactive)	8.07 µM (inactive)	3.94 µM (inactive)
CC(NC(NC(C)C12CC3CC(CC(C3)C1)C2)=C(C(Cl)=C(Cl)Cl)[N+](=O)[O-])C12CC3CC(CC(C3)C1)C2 (stereo not given)	4.5 µM (inactive)	47.3 µM (inactive)	30 µM (inactive)	19.5 µM (inactive)	7.11 µM (inactive)	13 µM (inactive)	3.83 µM (inactive)	18.7	32.1 µM (inactive)	3.9 µM (inactive)	3.58 µM (inactive)	33.3 µM (inactive)	26.7 µM (inactive)	28.2 µM (inactive)	20.4 µM (inactive)	6.31 µM (inactive)	43.4 µM (inactive)	0.923 µM (active)	30.2 µM (inactive)	9.71 µM (inactive)
N=C(N)C1CN(CCCCCCCCCCN2CC(C(=N)N)C(O)=NC2=O)C(=O)N=C1O (stereo not given)	> 10 µM (inactive)	> 10 µM (inactive)	> 10 µM (inactive)	> 10 µM (inactive)	> 10 µM (inactive)	> 10 µM (inactive)	> 10 µM (inactive)	> 10	> 10 µM (inactive)	> 10 µM (inactive)	> 10 µM (inactive)	> 10 µM (inactive)	> 10 µM (inactive)	> 10 µM (inactive)	> 10 µM (inactive)	> 10 µM (inactive)	> 10 µM (inactive)	> 10 µM (inactive)	> 10 µM (inactive)	> 10 µM (inactive)
